Patent US20090142411A1, “Composition and Device Comprising an Inorganic Component (Metal Compound) for Coagulation of Protein-Containing Fluids” (SMITH & NEPHEW, PLC, priority 2005, published 2009)

Tests used:
[1] = coagulation of heat-inactivated foetal calf serum
Procedure: (§1) The oxide powder was allowed to settle to the bottom of the vessel (0.5 ml capacity Eppendorf tube) and was left undisturbed for 2 hours. […] The vessel was left undisturbed for 24 h.

gelatine = assay: coagulation of gelatine solution; conditions: 5 μl aliquot of 350 mg/ml solution, 100 μl gelatine solution 40 mg/ml in PBS, immediately
[2] = coagulation of whole human blood; conditions: 1-5 μl aliquots of 350 mg/ml solution, 100 μl whole human blood
Procedure: Examples 4-9 were repeated with 100 μl whole human blood in place of the bovine serum albumin solution.

[3] = coagulation of whole human saliva; conditions: 5 gi aliquot of 350 mg/ml solution in PBS pH 7.4, 100 μl whole human saliva, 30 minutes
Procedure: (§2) The vessel was left undisturbed for 30 minutes.

[4] = coagulation of chronic wound fluid
Procedure: as §1

bovine serum albumin = bovine serum albumin (Bos taurus, UniProt P02769); assay: coagulation of bovine serum albumin solution; conditions: 10 mg powder in 100 μl bovine serum albumin 40 mg/ml in PBS pH 7.4, undisturbed 2 hours
Chain of bovine serum albumin (P02769 25-607): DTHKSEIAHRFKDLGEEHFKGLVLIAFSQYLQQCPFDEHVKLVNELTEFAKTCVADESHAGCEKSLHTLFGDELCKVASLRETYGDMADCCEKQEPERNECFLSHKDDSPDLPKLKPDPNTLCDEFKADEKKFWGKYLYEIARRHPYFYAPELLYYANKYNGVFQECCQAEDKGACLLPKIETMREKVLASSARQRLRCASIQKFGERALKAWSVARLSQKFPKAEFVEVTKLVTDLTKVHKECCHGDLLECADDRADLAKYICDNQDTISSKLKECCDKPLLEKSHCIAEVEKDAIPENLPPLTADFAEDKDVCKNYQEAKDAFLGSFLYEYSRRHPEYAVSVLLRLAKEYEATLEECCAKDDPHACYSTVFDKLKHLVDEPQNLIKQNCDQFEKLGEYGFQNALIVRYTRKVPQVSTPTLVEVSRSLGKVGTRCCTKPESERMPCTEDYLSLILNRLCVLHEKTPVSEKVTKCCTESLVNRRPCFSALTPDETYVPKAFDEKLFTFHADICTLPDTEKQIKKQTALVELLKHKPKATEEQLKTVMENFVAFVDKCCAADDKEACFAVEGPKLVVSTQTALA
Procedure: The oxide powder was allowed to settle to the bottom of the vessel (0.5 ml capacity Eppendorf tube) and was left undisturbed for 2 hours.
as §2, §2, §2, §2, §2
The vessel was left undisturbed for 24 h.

In the case of gold (III) chloride, the “coagulation, Examples 4-9 repeated” value ([1]; 1-5 μl aliquots of 350 mg/ml solution, 100 μl heat-inactivated foetal calf serum) is reported as “The results were the same”, the coagulation ([1]; 5 μl aliquot of 350 mg/ml solution, heat-inactivated foetal calf serum, 1.0 ml syringe, 24 h) is reported as “the fluid coagulated” and the “coagulation / precipitate formation” value (gelatine) is reported as “a fibrous precipitate was formed”. The “coagulation, Examples 4-9 repeated” value [2] was “The results were the same”, the coagulation [3] was “a lightly coagulated, opaque mass of several millimetres thickness was formed” and the “coagulation, Examples 4-9 repeated” value ([4]; 1-5 μl aliquots of 350 mg/ml solution, 100 μl chronic wound fluid) was “The results were the same”. For the same substance, the coagulation ([4]; 5 μl aliquot of 350 mg/ml solution, chronic wound fluid, 1.0 ml syringe, 24 h) was “the fluid coagulated”.
In the case of “gold (III) oxide [gold (III) oxide powder]”, the coagulation ([1]; 10 mg powder in 100 μl heat-inactivated foetal calf serum, undisturbed 2 hours) is reported as “a coagulated, opaque mass of several millimetres thickness was formed”, the coagulation (bovine serum albumin) is reported as “a coagulated, opaque mass of several millimetres thickness was formed” and the coagulation ([4]; 10 mg powder in 100 μl chronic wound fluid, overnight) is reported as “the entire fluid volume had coagulated”. For the same substance, the coagulation ([4]; 10 mg powder in 100 μl chronic wound fluid, undisturbed 2 hours) was “a coagulated, opaque mass of several millimetres thickness was formed”.
